Results from ChEMBL document CHEMBL1201862, “PubChem BioAssay data set” (2004).
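Five concentrations, 48 hours, 96-well plates. Abbreviation: GI50, concentration required for 50% inhibition of growth.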 Activity calls are given as the source filed them. Rule as the data show it: active = GI50 up to about 1.1 µM and inactive = higher.

What was measured:
Assay in all cases: NCI tumour cell line growth inhibition, 48 h
LOX IMVI = test system: LOX IMVI
SW-620 = test system: SW-620
HCC 2998 = test system: HCC 2998
SF-268 = test system: SF-268
SF-539 = test system: SF-539
BT-549 = test system: BT-549
SF-295 = test system: SF-295
MDA-MB-231 = test system: MDA-MB-231
ACHN = test system: ACHN
OVCAR-3 = test system: OVCAR-3
SK-OV-3 = test system: SK-OV-3
MCF7 = test system: MCF7
T47D = test system: T47D
PC-3 = test system: PC-3
UO-31 = test system: UO-31
NCI/ADR-RES = test system: NCI/ADR-RES
SK-MEL-28 = test system: SK-MEL-28
SNB-19 = test system: SNB-19
OVCAR-4 = test system: OVCAR-4
SNB-75 = test system: SNB-75

Row | Structure (SMILES) | GI50 (LOX IMVI) | GI50 (SW-620) | GI50 (HCC 2998) | GI50 (SF-268) | GI50 (SF-539) | GI50 (BT-549) | GI50 (SF-295) | GI50 (MDA-MB-231) | GI50 (ACHN) | GI50 (OVCAR-3) | GI50 (SK-OV-3) | GI50 (MCF7) | GI50 (T47D) | GI50 (PC-3) | GI50 (UO-31) | GI50 (NCI/ADR-RES) | GI50 (SK-MEL-28) | GI50 (SNB-19) | GI50 (OVCAR-4) | GI50 (SNB-75)
1 | CCOC(=O)NC(Nc1ccc(F)cc1)(C(=O)OCC)C(F)(F)F (stereo not given) | 0.153 µM (active) | 1.22 µM (inactive) | > 100 µM (inactive) | > 100 µM (inactive) | > 100 µM (inactive) | > 100 µM (inactive) | 8.38 µM (inactive) | > 100 µM (inactive) | 2.62 µM (inactive) | > 100 µM (inactive) | > 100 µM (inactive) | > 66.7 µM (inactive) | 3.72 µM (inactive) | 4.15 µM (inactive) | 8.59 µM (inactive) | 12 µM (inactive) | > 88.5 µM (inactive) | > 100 µM (inactive) | > 50.8 µM (inactive) | > 100 µM (inactive)
2 | N#Cc1c(-c2ccccc2)c(/N=N/c2ccc(F)cc2)c(=O)n2c1[nH]c1ccccc12 | 9.35 µM (inactive) | 4.28 µM (inactive) | 6.24 µM (inactive) | 6.43 µM (inactive) | 10.9 µM (inactive) | 8.85 µM (inactive) | 5.25 µM (inactive) | 5.21 µM (inactive) | 5.64 µM (inactive) | 2.14 µM (inactive) | 4.86 µM (inactive) | 4.51 µM (inactive) | 4.05 µM (inactive) | 3.4 µM (inactive) | 2.97 µM (inactive) | 3 µM (inactive) | 8.39 µM (inactive) | 5.05 µM (inactive) | 4.09 µM (inactive) | 13.2 µM (inactive)
3 | NS(=O)(=O)c1ccc(NNC(=O)c2cccc3c(=O)c4ccccc4[nH]c23)cc1 | 30.1 µM (inactive) | 72.6 µM (inactive) | > 100 µM (inactive) | 71.8 µM (inactive) | > 100 µM (inactive) | 62.4 µM (inactive) | 91 µM (inactive) | 51.6 µM (inactive) | 91.6 µM (inactive) | 56.9 µM (inactive) | > 100 µM (inactive) | 34 µM (inactive) | 48.4 µM (inactive) | 65.6 µM (inactive) | 45.1 µM (inactive) | > 100 µM (inactive) | > 100 µM (inactive) | > 100 µM (inactive) | 61.8 µM (inactive) | > 100 µM (inactive)
4 | CC(=O)O[C@@H]1[C@H]2O[C@H]2[C@H]2O[C@@]2(COC(=O)c2ccccc2)[C@H]1OC(C)=O | > 100 µM (inactive) | > 100 µM (inactive) | > 100 µM (inactive) | > 100 µM (inactive) | > 100 µM (inactive) | > 100 µM (inactive) | > 100 µM (inactive) | > 100 µM (inactive) | 16.9 µM (inactive) | > 100 µM (inactive) | > 100 µM (inactive) | > 100 µM (inactive) | > 100 µM (inactive) | > 100 µM (inactive) | > 100 µM (inactive) | > 100 µM (inactive) | > 100 µM (inactive) | > 100 µM (inactive) | > 100 µM (inactive) | > 100 µM (inactive)
5 | Clc1ccc(-c2c3nc(c(-c4ccc(Cl)cc4)c4ccc([nH]4)c(-c4ccc(Cl)cc4)c4nc(c(-c5ccc(Cl)cc5)c5ccc2[nH]5)C=C4)C=C3)cc1 | > 100 µM (inactive) | > 100 µM (inactive) | > 100 µM (inactive) | > 100 µM (inactive) | > 100 µM (inactive) | > 100 µM (inactive) | > 100 µM (inactive) | > 100 µM (inactive) | > 100 µM (inactive) | > 100 µM (inactive) | > 100 µM (inactive) | > 100 µM (inactive) | > 100 µM (inactive) | > 100 µM (inactive) | > 100 µM (inactive) | > 100 µM (inactive) | > 100 µM (inactive) | > 100 µM (inactive) | > 100 µM (inactive) | 20.8 µM (inactive)
6 | COc1cc(-c2coc3c(OC)c(OC4OC(CO)C(O)C(O)C4O)c(OC)cc3c2=O)cc(OC)c1C (stereo not given) | 3.37 µM (inactive) | 6.1 µM (inactive) | 3.89 µM (inactive) | 4.84 µM (inactive) | 3.69 µM (inactive) | 4.04 µM (inactive) | 11.7 µM (inactive) | 15.1 µM (inactive) | 7.55 µM (inactive) | 7.26 µM (inactive) | 7.96 µM (inactive) | 3.66 µM (inactive) | 9.14 µM (inactive) | 7.01 µM (inactive) | 4.42 µM (inactive) | 7.36 µM (inactive) | 4.8 µM (inactive) | 6.81 µM (inactive) | 13.1 µM (inactive) | 6.22 µM (inactive)
7 | CC[C@@H]1CC[C@@H]2[C@H](CC[C@]3(C)[C@@H](OC(C)=O)CC[C@@H]23)[C@H]1C(=O)OC | 20 µM (inactive) | 21.8 µM (inactive) | 97.9 µM (inactive) | 23.4 µM (inactive) | 19.2 µM (inactive) | 34.4 µM (inactive) | 21 µM (inactive) | 20.6 µM (inactive) | 40 µM (inactive) | 19.4 µM (inactive) | > 100 µM (inactive) | 25 µM (inactive) | 21.8 µM (inactive) | 23.7 µM (inactive) | 33.7 µM (inactive) | 26.9 µM (inactive) | 32.2 µM (inactive) | 25.4 µM (inactive) | 19.9 µM (inactive) | 22.3 µM (inactive)
8 | c1c[nH]c(C23C4C5C6C4C2C6C53)n1 (stereo not given) | > 100 µM (inactive) | > 100 µM (inactive) | > 100 µM (inactive) | > 100 µM (inactive) | > 100 µM (inactive) | > 100 µM (inactive) | > 100 µM (inactive) | > 100 µM (inactive) | > 100 µM (inactive) | > 100 µM (inactive) | > 100 µM (inactive) | > 100 µM (inactive) | > 100 µM (inactive) | > 100 µM (inactive) | > 100 µM (inactive) | > 100 µM (inactive) | > 100 µM (inactive) | > 100 µM (inactive) | 30.6 µM (inactive) | > 100 µM (inactive)
9 | c1ccc(-c2cc(C3CO3)c3ccccc3n2)cc1 (stereo not given) | 18.6 µM (inactive) | 27.9 µM (inactive) | 20 µM (inactive) | 20 µM (inactive) | 21.2 µM (inactive) | 20.7 µM (inactive) | 35.2 µM (inactive) | 23.3 µM (inactive) | 18.4 µM (inactive) | 17.9 µM (inactive) | 35 µM (inactive) | 16.2 µM (inactive) | 18.9 µM (inactive) | 19.5 µM (inactive) | 1.52 µM (inactive) | 24.3 µM (inactive) | 38.5 µM (inactive) | 29.1 µM (inactive) | 21.5 µM (inactive) | 25.9 µM (inactive)
10 | Cc1cc2nc3c(C#N)c(-c4ccccc4)cc(Nc4ccc(Cl)cc4)n3c2cc1C | > 100 µM (inactive) | > 100 µM (inactive) | > 100 µM (inactive) | 51.6 µM (inactive) | > 100 µM (inactive) | > 100 µM (inactive) | > 100 µM (inactive) | > 100 µM (inactive) | > 100 µM (inactive) | 6.05 µM (inactive) | > 100 µM (inactive) | > 100 µM (inactive) | 6.24 µM (inactive) | > 100 µM (inactive) | > 100 µM (inactive) | > 100 µM (inactive) | > 100 µM (inactive) | > 100 µM (inactive) | > 100 µM (inactive) | > 100 µM (inactive)
11 | CC1CCc2c(c(CC3CC(=O)NC(=O)C3)nn2-c2ccccc2)C1 (stereo not given) | > 100 µM (inactive) | > 100 µM (inactive) | > 100 µM (inactive) | > 100 µM (inactive) | > 100 µM (inactive) | > 100 µM (inactive) | > 100 µM (inactive) | > 100 µM (inactive) | > 100 µM (inactive) | > 100 µM (inactive) | > 100 µM (inactive) | > 100 µM (inactive) | > 100 µM (inactive) | > 100 µM (inactive) | 55.6 µM (inactive) | 75.2 µM (inactive) | > 100 µM (inactive) | > 100 µM (inactive) | > 100 µM (inactive) | > 100 µM (inactive)
12 | C=CC(c1ccccc1)[C@@]1(OC(C)=O)C(=O)C(=O)OC1C1COC(C)(C)O1 (stereo not given in full) | 4.16 µM (inactive) | 8.13 µM (inactive) | 17.2 µM (inactive) | 24.2 µM (inactive) | 10.4 µM (inactive) | 12 µM (inactive) | 16.7 µM (inactive) | 14.4 µM (inactive) | 5.78 µM (inactive) | 10.7 µM (inactive) | 18.1 µM (inactive) | 5.68 µM (inactive) | 13.2 µM (inactive) | 10.9 µM (inactive) | 11.5 µM (inactive) | 15.5 µM (inactive) | 8.32 µM (inactive) | 19.5 µM (inactive) | 14.9 µM (inactive) | 14.5 µM (inactive)
13 | COc1cc(/C=C/C=C2\CC/C(=C\C=C\c3ccc(O)c(OC)c3)C2=O)ccc1O | > 100 µM (inactive) | > 100 µM (inactive) | > 100 µM (inactive) | > 100 µM (inactive) | > 100 µM (inactive) | > 100 µM (inactive) | > 100 µM (inactive) | > 59.7 µM (inactive) | > 100 µM (inactive) | > 100 µM (inactive) | > 22.2 µM (inactive) | > 100 µM (inactive) | > 100 µM (inactive) | > 100 µM (inactive) | > 82 µM (inactive) | > 100 µM (inactive) | > 100 µM (inactive) | > 100 µM (inactive) | > 60.1 µM (inactive) | > 100 µM (inactive)
